Measured values: patent US8133913B2, “Substituted indeno [1,2-b]indole derivatives as novel inhibitors of protein kinase CK2 and their use as tumor therapeutic agents, cytostatics and diagnostic aids” (Heinrich-Heine Universitat Dusseldof, priority 2006, dated 2012)
Where two headings read alike, the source gives them in different places.

Legend:
[1] = system: 5637; test: Proliferation of tumor cell lines (Bracht et al.); type: cell-based; conditions: for activity at 20 µM: 5637, tested at 20 μM, read-out: T/C (%) Mean
[2] = target: T1, PLK1 (Homo sapiens, UniProt P53350); test: Radiometric protein kinase assay (33PanQinase Activity Assay); type: biochemical
T1 construct: made in house; host or cells: Sf9 insect cells, baculovirus
T1 sequence (P53350 whole entry): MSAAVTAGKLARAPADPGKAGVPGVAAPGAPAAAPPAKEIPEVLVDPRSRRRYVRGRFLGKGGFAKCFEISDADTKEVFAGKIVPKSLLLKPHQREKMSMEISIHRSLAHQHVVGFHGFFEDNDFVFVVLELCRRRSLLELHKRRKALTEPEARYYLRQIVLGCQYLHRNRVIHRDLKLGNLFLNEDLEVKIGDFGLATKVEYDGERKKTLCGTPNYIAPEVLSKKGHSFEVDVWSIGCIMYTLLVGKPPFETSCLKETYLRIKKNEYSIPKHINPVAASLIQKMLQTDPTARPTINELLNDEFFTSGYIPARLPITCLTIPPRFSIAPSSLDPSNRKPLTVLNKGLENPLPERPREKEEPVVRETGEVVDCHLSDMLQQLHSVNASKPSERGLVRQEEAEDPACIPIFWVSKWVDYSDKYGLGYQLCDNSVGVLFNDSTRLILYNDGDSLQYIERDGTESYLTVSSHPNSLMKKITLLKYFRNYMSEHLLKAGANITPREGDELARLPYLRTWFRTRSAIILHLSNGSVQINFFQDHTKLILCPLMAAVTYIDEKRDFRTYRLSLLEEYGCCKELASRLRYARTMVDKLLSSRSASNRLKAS

[3] = target: T2, Aurora-A (Homo sapiens, UniProt O14965); test: as above; type: biochemical
T2 construct: made in house; host or cells: Sf9 insect cells, baculovirus
T2 sequence (O14965 1-403): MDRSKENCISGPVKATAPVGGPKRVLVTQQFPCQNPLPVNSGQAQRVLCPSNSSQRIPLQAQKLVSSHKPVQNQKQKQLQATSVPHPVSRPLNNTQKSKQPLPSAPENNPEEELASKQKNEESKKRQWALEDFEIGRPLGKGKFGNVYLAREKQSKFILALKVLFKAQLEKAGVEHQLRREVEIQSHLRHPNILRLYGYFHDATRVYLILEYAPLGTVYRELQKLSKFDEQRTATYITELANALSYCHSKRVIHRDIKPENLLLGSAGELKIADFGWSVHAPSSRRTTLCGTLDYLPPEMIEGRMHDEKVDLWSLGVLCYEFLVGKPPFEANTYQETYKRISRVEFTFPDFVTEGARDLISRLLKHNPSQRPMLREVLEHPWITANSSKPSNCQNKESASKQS

[4] = target: T3, MET (Homo sapiens, UniProt P08581); test: as above; type: biochemical
T3 construct: made in house; host or cells: Sf9 insect cells, baculovirus
T3 sequence (P08581 25-1390): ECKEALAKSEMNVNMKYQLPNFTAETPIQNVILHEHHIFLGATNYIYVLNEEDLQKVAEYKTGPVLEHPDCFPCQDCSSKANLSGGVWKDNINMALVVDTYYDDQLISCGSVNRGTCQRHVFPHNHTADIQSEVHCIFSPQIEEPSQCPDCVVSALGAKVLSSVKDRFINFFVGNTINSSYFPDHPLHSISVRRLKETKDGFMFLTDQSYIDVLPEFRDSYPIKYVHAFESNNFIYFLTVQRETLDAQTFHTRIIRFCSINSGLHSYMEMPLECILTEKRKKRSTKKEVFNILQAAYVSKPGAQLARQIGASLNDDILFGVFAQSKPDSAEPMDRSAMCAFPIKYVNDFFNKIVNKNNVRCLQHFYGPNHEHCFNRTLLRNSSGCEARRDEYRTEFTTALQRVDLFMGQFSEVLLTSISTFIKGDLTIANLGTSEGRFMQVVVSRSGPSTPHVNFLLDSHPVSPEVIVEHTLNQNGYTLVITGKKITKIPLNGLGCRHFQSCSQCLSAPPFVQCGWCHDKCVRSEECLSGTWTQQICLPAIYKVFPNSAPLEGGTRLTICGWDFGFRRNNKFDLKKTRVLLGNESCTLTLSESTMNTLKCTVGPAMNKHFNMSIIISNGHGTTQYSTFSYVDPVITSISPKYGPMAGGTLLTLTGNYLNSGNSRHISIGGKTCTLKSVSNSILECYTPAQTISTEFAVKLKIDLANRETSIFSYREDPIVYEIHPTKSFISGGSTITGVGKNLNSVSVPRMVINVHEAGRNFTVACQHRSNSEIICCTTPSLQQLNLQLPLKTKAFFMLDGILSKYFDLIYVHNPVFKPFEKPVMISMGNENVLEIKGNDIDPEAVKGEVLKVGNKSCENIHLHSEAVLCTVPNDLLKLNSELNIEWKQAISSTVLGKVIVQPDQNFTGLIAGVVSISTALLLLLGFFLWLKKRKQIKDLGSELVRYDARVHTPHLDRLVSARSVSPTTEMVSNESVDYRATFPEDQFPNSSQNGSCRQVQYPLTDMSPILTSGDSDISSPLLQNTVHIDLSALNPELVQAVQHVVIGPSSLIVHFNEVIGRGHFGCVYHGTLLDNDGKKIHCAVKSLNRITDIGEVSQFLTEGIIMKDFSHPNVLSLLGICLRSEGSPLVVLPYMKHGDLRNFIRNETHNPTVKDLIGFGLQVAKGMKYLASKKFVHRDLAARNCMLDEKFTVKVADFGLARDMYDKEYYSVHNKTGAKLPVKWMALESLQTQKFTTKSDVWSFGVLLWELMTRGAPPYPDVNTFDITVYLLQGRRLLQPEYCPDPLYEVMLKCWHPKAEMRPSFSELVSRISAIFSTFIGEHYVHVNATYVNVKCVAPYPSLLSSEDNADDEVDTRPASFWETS

[5] = target: T4, EGF-R (Homo sapiens, UniProt P00533); test: as above; type: biochemical; conditions: 1 μM ATP
T4 construct: made in house; host or cells: Sf9 insect cells, baculovirus
T4 sequence (P00533 25-1210): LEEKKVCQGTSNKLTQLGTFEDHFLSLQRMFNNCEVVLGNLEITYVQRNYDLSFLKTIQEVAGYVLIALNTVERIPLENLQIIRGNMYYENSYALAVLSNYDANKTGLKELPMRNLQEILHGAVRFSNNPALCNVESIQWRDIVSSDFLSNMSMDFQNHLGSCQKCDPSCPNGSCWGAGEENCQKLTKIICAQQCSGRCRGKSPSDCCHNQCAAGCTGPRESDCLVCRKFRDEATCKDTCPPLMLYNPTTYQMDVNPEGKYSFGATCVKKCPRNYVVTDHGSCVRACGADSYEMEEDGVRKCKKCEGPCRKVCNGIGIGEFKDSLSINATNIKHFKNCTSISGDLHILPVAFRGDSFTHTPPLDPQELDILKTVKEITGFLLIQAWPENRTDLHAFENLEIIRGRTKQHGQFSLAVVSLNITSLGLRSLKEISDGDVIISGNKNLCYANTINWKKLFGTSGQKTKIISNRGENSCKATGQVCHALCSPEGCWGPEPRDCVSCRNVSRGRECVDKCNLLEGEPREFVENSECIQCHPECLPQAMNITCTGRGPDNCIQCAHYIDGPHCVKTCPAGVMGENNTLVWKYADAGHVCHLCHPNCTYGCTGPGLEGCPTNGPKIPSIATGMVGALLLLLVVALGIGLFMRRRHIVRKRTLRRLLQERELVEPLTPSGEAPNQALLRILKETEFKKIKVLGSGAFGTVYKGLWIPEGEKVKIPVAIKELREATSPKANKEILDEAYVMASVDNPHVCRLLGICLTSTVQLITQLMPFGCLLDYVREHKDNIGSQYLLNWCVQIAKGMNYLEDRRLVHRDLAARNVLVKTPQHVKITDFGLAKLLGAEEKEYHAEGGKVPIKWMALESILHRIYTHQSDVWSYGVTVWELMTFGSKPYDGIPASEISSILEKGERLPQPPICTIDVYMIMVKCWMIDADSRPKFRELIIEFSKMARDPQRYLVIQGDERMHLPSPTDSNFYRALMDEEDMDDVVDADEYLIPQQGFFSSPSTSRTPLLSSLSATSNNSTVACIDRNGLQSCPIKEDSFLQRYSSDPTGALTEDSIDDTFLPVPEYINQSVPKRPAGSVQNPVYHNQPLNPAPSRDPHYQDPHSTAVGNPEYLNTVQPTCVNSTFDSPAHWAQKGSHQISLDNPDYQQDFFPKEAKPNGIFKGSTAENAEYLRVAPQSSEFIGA

[6] = target: T5, PDGFR-beta (Homo sapiens, UniProt P09619); test: as above; type: biochemical; conditions: 1 μM ATP
T5 construct: made in house; host or cells: Sf9 insect cells, baculovirus
T5 sequence (P09619 33-1106): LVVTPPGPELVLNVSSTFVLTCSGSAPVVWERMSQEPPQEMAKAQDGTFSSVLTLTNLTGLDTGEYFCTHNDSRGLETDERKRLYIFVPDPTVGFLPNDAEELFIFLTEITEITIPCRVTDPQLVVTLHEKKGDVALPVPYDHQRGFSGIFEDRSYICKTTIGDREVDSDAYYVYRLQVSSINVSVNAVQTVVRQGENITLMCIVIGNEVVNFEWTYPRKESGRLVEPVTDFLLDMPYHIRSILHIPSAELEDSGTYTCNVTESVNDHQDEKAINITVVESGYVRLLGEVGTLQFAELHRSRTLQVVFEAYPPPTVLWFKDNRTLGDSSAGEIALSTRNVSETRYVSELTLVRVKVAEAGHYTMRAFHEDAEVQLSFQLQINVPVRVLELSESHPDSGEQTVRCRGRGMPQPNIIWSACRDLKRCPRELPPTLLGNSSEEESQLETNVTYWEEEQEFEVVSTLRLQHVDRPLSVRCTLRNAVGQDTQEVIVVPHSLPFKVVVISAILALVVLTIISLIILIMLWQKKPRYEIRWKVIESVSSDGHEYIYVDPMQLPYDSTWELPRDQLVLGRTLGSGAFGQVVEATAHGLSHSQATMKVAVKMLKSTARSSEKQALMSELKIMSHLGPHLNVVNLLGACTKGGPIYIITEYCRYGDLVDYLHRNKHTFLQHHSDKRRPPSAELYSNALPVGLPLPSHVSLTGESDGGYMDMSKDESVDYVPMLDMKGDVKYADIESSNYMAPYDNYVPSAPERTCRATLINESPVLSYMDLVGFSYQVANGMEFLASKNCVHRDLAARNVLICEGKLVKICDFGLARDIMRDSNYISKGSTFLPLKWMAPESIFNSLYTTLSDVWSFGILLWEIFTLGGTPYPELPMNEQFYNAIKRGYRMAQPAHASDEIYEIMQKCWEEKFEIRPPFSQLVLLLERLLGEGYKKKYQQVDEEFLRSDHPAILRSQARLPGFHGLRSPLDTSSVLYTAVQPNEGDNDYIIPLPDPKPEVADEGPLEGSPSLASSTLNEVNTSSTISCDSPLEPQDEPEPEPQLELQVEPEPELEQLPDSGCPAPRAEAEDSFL

[7] = system: A427; test: Proliferation of tumor cell lines (Bracht et al.); type: cell-based; conditions: Homo sapiens, A-427, read-out: IC50 (μM) Mean, inhibition of cell proliferation
[8] = target: T6, human CK2 protein kinase (holoenzyme) (Homo sapiens, UniProt P68400); test: Inhibition of recombinant human CK2 protein kinase (holoenzyme), radiometric filter assay with peptide […]; type: biochemical
T6 construct: made in house; host or cells: E. coli BL21(DE3), pT7-7 or bicistronic pET11d-CK2α, β
T6 sequence (P68400 whole entry): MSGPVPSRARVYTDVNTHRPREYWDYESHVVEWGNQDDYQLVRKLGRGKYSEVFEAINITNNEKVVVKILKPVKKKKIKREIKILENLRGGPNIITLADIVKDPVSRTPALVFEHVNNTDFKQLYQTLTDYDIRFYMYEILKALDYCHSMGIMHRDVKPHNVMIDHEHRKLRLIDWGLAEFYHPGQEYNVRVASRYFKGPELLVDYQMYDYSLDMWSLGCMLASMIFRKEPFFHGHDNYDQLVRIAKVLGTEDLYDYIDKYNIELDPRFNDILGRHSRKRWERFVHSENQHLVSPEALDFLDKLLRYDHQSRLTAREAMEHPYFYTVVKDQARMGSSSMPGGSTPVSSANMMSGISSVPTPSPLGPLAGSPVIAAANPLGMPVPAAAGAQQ
T6 sequence (P67870 whole entry partner): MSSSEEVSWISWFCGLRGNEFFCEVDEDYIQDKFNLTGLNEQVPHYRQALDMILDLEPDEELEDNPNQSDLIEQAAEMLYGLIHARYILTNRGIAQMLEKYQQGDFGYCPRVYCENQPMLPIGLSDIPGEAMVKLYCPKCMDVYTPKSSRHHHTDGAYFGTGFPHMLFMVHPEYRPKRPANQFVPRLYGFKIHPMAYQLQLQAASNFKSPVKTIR

[9] = system: RT-4; test: Proliferation of tumor cell lines (Bracht et al.); type: cell-based; conditions: Homo sapiens, read-out: IC50 (μM) Mean, inhibition of cell proliferation
[10] = system: MCF-7; test: Proliferation of tumor cell lines (Bracht et al.); type: cell-based; conditions: Homo sapiens, MCF7, read-out: IC50 (μM) Mean, inhibition of cell proliferation
[11] = system: DAN-G; test: Proliferation of tumor cell lines (Bracht et al.); type: cell-based; conditions: read-out: IC50 (μM) Mean, inhibition of cell proliferation
[12] = target: T7, CK2-alpha1 (catalytic subunit of CK2) (Homo sapiens, UniProt P68400); test: Radiometric protein kinase assay (33PanQinase Activity Assay); type: biochemical; conditions: 1 μM ATP, substrate casein
T7 construct: made in house; host or cells: Sf9 insect cells, baculovirus
T7 sequence (P68400 whole entry): as the sequence (P68400 whole entry) above

[13] = system: LCLC; test: Proliferation of tumor cell lines (Bracht et al.); type: cell-based; conditions: read-out: IC50 (μM) Mean, inhibition of cell proliferation
[14] = 1 μM ATP, read-out: IC50 values [μM] PLK1
[15] = 1 μM ATP, read-out: IC50 values [μM] Aurora-A
[16] = 1 μM ATP, read-out: IC50 values [μM] MET

| SMILES | activity at 20 µM [1] | IC50 [2] | IC50 [3] | IC50 [4] | IC50 [5] | IC50 [6] | IC50 [2, 14] | IC50 [3, 15] | IC50 [4, 16] | IC50 [7] | inhibition at 10 µM ([8]; 10 μM compound, DMSO control = 100% CK2 activity, at least three independent experiments) | IC50 ([8]; concentration range 30 μM to 0.01 μM, 100 μM ATP in assay buffer) | IC50 ([1]; 5637, read-out: IC50 (μM) Mean, inhibition of cell proliferation) | IC50 [9] | IC50 [10] | IC50 [11] | IC50 [12] | IC50 [13] |
| --- | --- | --- | --- | --- | --- | --- | --- | --- | --- | --- | --- | --- | --- | --- | --- | --- | --- | --- |
| CC(C)n1c2c(c3c1-c1ccccc1C3=O)C(=O)CCC2 [Compound 4b, 5-Isopropyl-5,6,7,8-tetrahydroindeno[1,2-b]indole-9,10-dione] | 99% | > 10 µM | > 10 µM | > 10 µM | – | – | – | – | – | – | – | – | – | – | – | – | – | – |
| CC(C)n1c2c(=O)ccc(=O)c2c2c(=O)c3ccccc3c21 [Compound 6b, 5-Isopropyl-5H-indeno[1,2-b]indole-6,9,10-trione] | -1.73% | – | – | – | > 10 µM | > 10 µM | > 10 µM | 5.8 µM | > 10 µM | – | – | – | – | – | – | – | – | – |
| O=c1ccc(=O)c2c1c1c(=O)c3ccccc3c1n2Cc1ccccc1 [Compound 6c, 5-Benzyl 5,6,9,10-tetrahydroindeno[1,2-b]indole-6,9,10-trione] | 0.44% | – | – | – | 2.5 µM | > 10 µM | > 10 µM | > 10 µM | > 10 µM | 3.74 µM | 60% | 1.49 µM | 2.75 µM | > 20 µM | 3.27 µM | > 20 µM | > 10 µM | 4.14 µM |
